Experimental data reported in ChEMBL document CHEMBL5625263, “Discovery of a novel series of selective macrocyclic PKCTheta inhibitors” (Bioorg Med Chem Lett, 2024).
≈ marks a conversion by molar mass, not a printed value.

Legend:
[1] = Apparent permeability of a compound in human Caco-2 cells; format: ADME, cell-based
[2] = Metabolic stability in human hepatocytes assessed as intrinsic clearance measured per 10^6 cells; format: ADME, cell-based, Hepatocyte; conditions: read-out: CLH
[3] = Efflux ratio of apparent permeability across basolateral to apical side over apical to basolateral side in human Caco-2 cells; format: ADME, cell-based
[4] = target: T1, Protein kinase C alpha type (Homo sapiens, UniProt P17252); experiment: Inhibition of PKC alpha (unknown origin) in presence of ATP at Km
[5] = target: T2, Protein kinase C theta type (Homo sapiens, UniProt Q04759); experiment: Inhibition of PKC theta (unknown origin) in presence of 1 mM ATP
[6] = target: T2, Protein kinase C theta type; experiment: Inhibition of PKC theta (unknown origin) in presence of ATP at Km
[7] = target: T1, Protein kinase C alpha type; experiment: Inhibition of PKC alpha (unknown origin) in presence of 1 mM ATP
[8] = target: T2, Protein kinase C theta type; experiment: Inhibition of PKC theta in TCR-stimulated human PBMC assessed as inhibition of IL-2 release; format: cell-based
[9] = Solubility of the compound; format: physicochemical
[10] = Selectivity ratio of inhibition of AURB (unknown origin) to inhibition of PKC theta (unknown origin) at 1 mM ATP concentration
[11] = Selectivity ratio of inhibition of CLK1 (unknown origin) to inhibition of PKC theta (unknown origin) at 1 mM ATP concentration
[12] = Selectivity ratio of inhibition of PKACalpha (unknown origin) to inhibition of PKC theta (unknown origin) at 1 mM ATP concentration
[13] = Selectivity ratio of inhibition of MSK1 (unknown origin) to inhibition of PKC theta (unknown origin) at 1 mM ATP concentration
[14] = Selectivity ratio of inhibition of TRKA (unknown origin) to inhibition of PKC theta (unknown origin) at 1 mM ATP concentration
[15] = Selectivity ratio of inhibition of RSK3 (unknown origin) to inhibition of PKC theta (unknown origin) at 1 mM ATP concentration
[16] = Selectivity ratio of inhibition of PKCdelta (unknown origin) to inhibition of PKC theta (unknown origin) at 1 mM ATP concentration
[17] = Selectivity ratio of inhibition of HGK (unknown origin) to inhibition of PKC theta (unknown origin) at 1 mM ATP concentration
[18] = Selectivity ratio of inhibition of PKCeta (unknown origin) to inhibition of PKC theta (unknown origin) at 1 mM ATP concentration
[19] = Selectivity ratio of inhibition of GSK3beta (unknown origin) to inhibition of PKC theta (unknown origin) at 1 mM ATP concentration
[20] = Oral bioavailability in rat; format: ADME, organism-based; conditions: in vivo
[21] = Selectivity ratio of inhibition of FLT3 (unknown origin) to inhibition of PKC theta (unknown origin) at 1 mM ATP concentration
[22] = Selectivity ratio of inhibition of PKCbeta1 (unknown origin) to inhibition of PKC theta (unknown origin) at 1 mM ATP concentration
[23] = Selectivity ratio of inhibition of PI3K-C2beta (unknown origin) to inhibition of PKC theta (unknown origin) at 1 mM ATP concentration
[24] = target: Voltage-gated inwardly rectifying potassium channel KCNH2 (Homo sapiens, UniProt Q12809); experiment: Inhibition of hERG; format: toxicity
Chain of Voltage-gated inwardly rectifying potassium channel KCNH2 (Q12809 whole entry): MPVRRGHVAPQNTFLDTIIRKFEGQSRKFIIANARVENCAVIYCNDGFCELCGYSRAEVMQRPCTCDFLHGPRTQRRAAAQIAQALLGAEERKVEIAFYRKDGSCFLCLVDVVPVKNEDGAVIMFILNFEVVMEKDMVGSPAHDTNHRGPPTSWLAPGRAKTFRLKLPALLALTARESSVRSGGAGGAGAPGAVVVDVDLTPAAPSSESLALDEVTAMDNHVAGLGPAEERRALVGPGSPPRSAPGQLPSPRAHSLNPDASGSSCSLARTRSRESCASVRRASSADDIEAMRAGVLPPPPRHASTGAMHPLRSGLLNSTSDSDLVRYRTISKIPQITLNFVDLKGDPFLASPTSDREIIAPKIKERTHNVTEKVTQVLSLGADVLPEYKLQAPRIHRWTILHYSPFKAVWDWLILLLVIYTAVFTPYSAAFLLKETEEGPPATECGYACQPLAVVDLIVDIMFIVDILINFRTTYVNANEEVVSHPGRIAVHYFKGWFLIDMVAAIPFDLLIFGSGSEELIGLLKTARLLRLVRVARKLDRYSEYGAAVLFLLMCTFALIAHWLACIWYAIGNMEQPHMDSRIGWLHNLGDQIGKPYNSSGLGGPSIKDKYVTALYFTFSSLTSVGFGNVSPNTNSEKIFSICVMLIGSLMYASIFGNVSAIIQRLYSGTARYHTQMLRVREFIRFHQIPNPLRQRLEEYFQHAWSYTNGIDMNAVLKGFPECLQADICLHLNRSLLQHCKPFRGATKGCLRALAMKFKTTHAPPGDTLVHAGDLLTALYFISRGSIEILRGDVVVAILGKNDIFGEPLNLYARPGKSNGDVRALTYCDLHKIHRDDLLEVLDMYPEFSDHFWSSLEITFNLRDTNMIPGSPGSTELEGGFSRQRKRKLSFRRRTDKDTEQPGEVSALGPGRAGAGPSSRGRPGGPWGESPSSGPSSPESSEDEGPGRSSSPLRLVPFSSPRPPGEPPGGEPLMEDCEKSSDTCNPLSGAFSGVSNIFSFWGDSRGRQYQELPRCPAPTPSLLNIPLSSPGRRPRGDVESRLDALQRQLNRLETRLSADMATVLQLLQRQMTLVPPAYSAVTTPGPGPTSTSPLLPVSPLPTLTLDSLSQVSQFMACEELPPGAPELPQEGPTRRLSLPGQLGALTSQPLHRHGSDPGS

T2 sequence (Q04759 whole entry): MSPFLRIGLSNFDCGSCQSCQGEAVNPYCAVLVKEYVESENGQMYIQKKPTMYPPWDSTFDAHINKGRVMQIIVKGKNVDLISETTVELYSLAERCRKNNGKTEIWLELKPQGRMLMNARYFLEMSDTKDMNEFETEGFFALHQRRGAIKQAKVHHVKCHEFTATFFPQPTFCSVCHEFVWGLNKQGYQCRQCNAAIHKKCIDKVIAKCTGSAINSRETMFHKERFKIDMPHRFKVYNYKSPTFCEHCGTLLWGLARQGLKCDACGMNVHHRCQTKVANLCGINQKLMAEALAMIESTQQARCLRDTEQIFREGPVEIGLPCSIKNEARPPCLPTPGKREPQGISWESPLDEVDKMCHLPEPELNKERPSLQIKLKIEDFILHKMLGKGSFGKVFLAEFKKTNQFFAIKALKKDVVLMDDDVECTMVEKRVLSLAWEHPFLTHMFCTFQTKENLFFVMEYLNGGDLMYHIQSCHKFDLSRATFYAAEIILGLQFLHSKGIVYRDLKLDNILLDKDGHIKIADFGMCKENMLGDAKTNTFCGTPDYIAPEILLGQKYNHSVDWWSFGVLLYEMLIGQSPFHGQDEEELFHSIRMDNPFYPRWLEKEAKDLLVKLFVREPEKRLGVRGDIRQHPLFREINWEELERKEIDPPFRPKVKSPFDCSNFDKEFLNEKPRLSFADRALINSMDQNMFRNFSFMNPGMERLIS

Row | SMILES | Papp [1] [×10⁻⁶ cm/s] | hepatocyte CLint [2] [µL/min/1e6 cells] | efflux ratio [3] | IC50 [4] [nM] | IC50 [5] [nM] | IC50 [6] [nM] | IC50 [7] [nM] | IC50 [8] [nM] | solubility [9] [µM] | also measured
1 | CC1CCCn2ccc(=O)c3ccc(nc32)-n2c(=O)[nH]c3nccc(c32)O1 (stereo not given) | 1.3 | < 4 | 23 | 880 | 15 | 1.2 | 6600 | 52 | 275 (≈ 99.9 µg/mL) | 
2 | CC1CCn2ccc(=O)c3cc(F)c(nc32)-n2c(=O)[nH]c3nccc(c32)O1 (stereo not given) | 0.5 | < 4 | 53 | 440 | 5 | < 0.5 | 3700 | 27 | 274 (≈ 101 µg/mL) | 
3 | NC(=O)c1ccc2nc1OCCCCOc1ccnc3[nH]c(=O)n-2c13 | 0.2 |  |  |  |  |  |  |  | 5.5 (≈ 1.88 µg/mL) | 
4 | CC1CCCOc2cccc(n2)-n2c(=O)[nH]c3nccc(c32)O1 (stereo not given) | 31 | 6.1 | 0.6 | 1900 | 61 | 5 | > 10000 | 236 | 32 (≈ 9.99 µg/mL) | 
5 | CC1CCCOc2nc(c(-c3cnc[nH]3)cc2C(N)=O)-n2c(=O)[nH]c3nccc(c32)O1 (stereo not given) |  |  |  | 920 | 15 | 1.4 | 6700 | 89 |  | 
6 | CC1(C)NC(=O)c2ccc3nc2N1CCCOc1ccnc2[nH]c(=O)n-3c12 | 1.3 |  |  |  |  |  |  |  | 1.9 (≈ 0.696 µg/mL) | 
7 | O=c1ccn2c3nc(ccc13)-n1c(=O)[nH]c3nccc(c31)OCCCC2 | 0.2 | 6 |  |  |  |  |  |  | 0.9 (≈ 0.314 µg/mL) | 
8 | CC1CCCOc2ccnc3[nH]c(=O)n(c23)-c2ccc3c(=O)ccn1c3n2 (stereo not given) | 3.1 | 17 | 12 | 68 | < 0.5 | < 0.5 | 679 | 7.6 | 296 (≈ 108 µg/mL) | 
9 | CC1CCN2c3nc(ccc3C(=O)NC2(C)C)-n2c(=O)[nH]c3nccc(c32)O1 (stereo not given) | 0.9 |  | 65 | 57 | 0.1 | < 0.1 | 487 | 6 | 25 (≈ 9.51 µg/mL) | Selectivity ratio [10]: 253; Selectivity ratio [11]: 1620; Selectivity ratio [12]: 25000; Selectivity ratio [13]: 5160; Selectivity ratio [14]: 5180; Selectivity ratio [15]: 2260; Selectivity ratio [16]: 677; Selectivity ratio [17]: 14500; Selectivity ratio [18]: 997; Selectivity ratio [19]: 17900; bioavailability [20]: 17%; Selectivity ratio [21]: 2450; Selectivity ratio [22]: 911; Selectivity ratio [23]: 4640
10 | CC1CCN(C)c2ccnc3cc(F)c(nc23)-n2c(=O)[nH]c3nccc(c32)O1 (stereo not given) |  | 10 |  | 25 | < 0.5 | < 0.5 | 190 | 1.9 |  | IC50 [24]: 2400 nM
11 | CC1(C)NC(=O)c2ccc3cc2N1CCCCOc1ccnc2[nH]c(=O)n-3c12 | 0.7 |  |  |  |  |  |  |  | 12 (≈ 4.55 µg/mL) | 
12 | CC1CCOc2ccnc3ccc(nc23)-n2c(=O)[nH]c3nccc(c32)O1 (stereo not given) | 26 | < 4 | 1 | 980 | 54 | 4.2 | 7900 | 255 |  | IC50 [24]: > 30000 nM
13 | CN1CCN(c2nc(C3=C(c4c[nH]c5ccccc45)C(=O)NC3=O)c3ccccc3n2)CC1 [SOTRASTAURIN] |  |  |  |  | 3.4 | 0.7 |  | 49 |  | 
14 | CN1CCCCOc2ccnc3[nH]c(=O)n(c23)-c2ccc(C(N)=O)c1n2 | 2.2 |  |  |  |  |  |  |  | 16 (≈ 5.67 µg/mL) | 
15 | C[C@H](c1ccccc1)N1c2cc(-n3c(=O)[nH]c4ncccc43)ccc2C(=O)NC1(C)C | 7.4 | 11 |  |  |  |  |  |  | 54 (≈ 22.3 µg/mL) | 
16 | CC1CCN(C)c2ccnc3ccc(nc23)-n2c(=O)[nH]c3nccc(c32)O1 (stereo not given) | 14 | < 4 | 2 | 82 | 1 | < 0.5 | 940 | 6.5 |  | IC50 [24]: < 400 nM
17 | CC1CCCOc2ccnc3[nH]c(=O)n(c23)-c2cccc(n2)O1 (stereo not given) | 32 | 32 | 0.7 | 259 | 3.6 | < 0.5 | 2200 | 28 | 180 (≈ 56.2 µg/mL) | 
18 | CC1CCCOc2nc(c(-c3ccn[nH]3)cc2C(N)=O)-n2c(=O)[nH]c3nccc(c32)O1 (stereo not given) |  |  |  | 8200 |  | 47 |  |  |  | 
19 | CC1(C)NC(=O)c2ccc3nc2N1CCCCOc1ccnc2[nH]c(=O)n-3c12 | 0.1 |  |  |  |  |  |  |  | 1.5 (≈ 0.571 µg/mL) | 
20 | CC1CCCOc2nc(c(-c3nnc[nH]3)cc2C(N)=O)-n2c(=O)[nH]c3nccc(c32)O1 (stereo not given) |  |  |  | 1100 |  | 3.3 |  | 160 |  | 
21 | CC1CCN(C)c2c(F)cnc3cc(F)c(nc23)-n2c(=O)[nH]c3nccc(c32)O1 (stereo not given) | 18 | 4 | 1 | 56 | 1.2 | < 0.5 | 934 | 9.1 |  | Selectivity ratio [10]: > 8330; Selectivity ratio [11]: 858; Selectivity ratio [12]: 754; Selectivity ratio [13]: 576; Selectivity ratio [14]: 353; Selectivity ratio [15]: 649; Selectivity ratio [16]: 166; Selectivity ratio [17]: 36; Selectivity ratio [18]: 62; Selectivity ratio [19]: 187; bioavailability [20]: 58%; IC50 [24]: 13000 nM; Selectivity ratio [21]: 174; Selectivity ratio [22]: 709; Selectivity ratio [23]: 332
22 | O=c1[nH]c2nccc3c2n1-c1cccc(n1)OCCCCO3 | 15 | 12 | 0.9 | > 10000 |  | 9.2 |  |  | 3 (≈ 0.895 µg/mL) | 
23 | CC1(C)NC(=O)c2ccc3cc2N1CCCOc1ccnc2[nH]c(=O)n-3c12 | 0.3 |  |  |  |  |  |  |  | 9 (≈ 3.29 µg/mL) | 
24 | CC1CCC(C)Oc2ccnc3[nH]c(=O)n(c23)-c2nc(c(C(N)=O)cc2F)O1 (stereo not given) | 8 | < 4 | 7 | 49 | 0.9 | < 0.5 | 620 | 12 | 145 (≈ 56.2 µg/mL) | bioavailability [20]: 69%
25 | CN1CCCCOc2ccnc3[nH]c(=O)n(c23)-c2cc1ccc2Cl |  | < 1 |  |  |  |  |  |  | 4 (≈ 1.38 µg/mL) | 
26 | CC1CCC(C)c2ccnc3ccc(nc23)-n2c(=O)[nH]c3nccc(c32)O1 (stereo not given) |  | 19 |  | 65 | 3.9 | < 0.5 | 840 | 28 |  | 
27 | CC1CCCOc2ccnc3[nH]c(=O)n(c23)-c2ccc3nccc1c3n2 (stereo not given) | 31 | 36 | 0.8 | 59 | < 0.5 | < 0.5 | 550 | 4.2 |  | IC50 [24]: 24000 nM
28 | CC1CCCOc2ccnc3[nH]c(=O)n(c23)-c2nc(c(C(N)=O)cc2-c2ncc[nH]2)O1 (stereo not given) |  | 22 |  | 270 | 1.2 | < 1 | 2200 | 15 |  | 
